Experiments:
[1] = tested on: Balb/c mice and tumor bearing mice tissues; test: Tissue histopathology after 8 Gy TBI; type: in vivo, mouse
Protocol: The hepatic, spleen and small intestine specimens were collected from Balb/c mice and tumor bearing mice three days after 8 Gy TBI with or without pre-treatment with DMA (50 mg/kg) 2 hour before TBI. Tissue specimens were fixed in 10% buffered formalin, embedded in paraffin, sectioned and stained with H&E and examined using an upright trinocular microscope attached to a CCD camera.

[2] = tested on: Balb/c mice spleen and small intestine; test: BrdU and IL6 immunohistochemistry; type: in vivo, mouse
Protocol: Spleen cell survival was determined 3 days after irradiation by 5-bromo-2′-deoxyuridine (BrdU, i.p., 100 mg/kg) to each mouse 2 h before euthanasia. Similarly small intestine was checked for IL6 expression. BrdU and IL6 immunohistochemistry (IHC) were performed as per standard protocol against BrdU and IL6. 3,3,-diaminobenzidine (DAB) was used to detect antigen-antibody binding. Counterstaining was done with hematoxylin, and after dehydration, slides were mounted with glycerogelatin.

HEK293 cells [3] = test: Actively proliferating cells by BrdU uptake; type: cell-based, human; conditions: 48 h
Protocol: FIG. 5. […] Tissue sections performed 3 days postirradiation (8Gy) with and without 50 mg/kg bw, i.v. DMA pretreatment with the control and DMA treated tissues (A) Images showing spleen, intestine and liver analysis at magnification 40× objective lens. (B) Small intestine, spleen and lung sections from melanoma tumor bearing mice at 40× & 60× objective lens (C) Immunohistochemical analysis of BrdU uptake in spleen and IL6 protein expression in intestine tissues at 100× objective lens magnification. (D) Graphical representation of actively proliferating HEK293 at 48 h and Balb/c intestinal cells by BrdU uptake under each condition (n=3/group from 2 independent experiments).

[4] = tested on: Akt/NFκB pathway in HEK293, MRC5 and A549 cell lines; test: Immunoblot analysis in cell lines; type: cell-based, human
Protocol: (§1) HEK293, MRC5 and A549 cells were treated as indicated earlier. The cell pellet was resuspended in RIPA buffer and allowed to swell on ice for 30 min. Balb/c intestine tissue and tumor tissues were homogenized in RIPA buffer. Protein concentration was determined using Bradford's Assay (Bangalore Genei). Western blot was performed using standard protocols with primary antibodies against Akt, pAkt (Ser-473), […], mTOR, p70, Bad, PTEN, IKKα/β, p IKKα/β, p53, Bcl2, GAPDH, and NFκB (p65) (Cell Signalling) and horseradish peroxidase-conjugated mouse or rabbit secondary antibody (Abcam). Signals were detected using enhanced chemiluminescence (ECL system, Pierce) on X-ray film.
Cells after treatment were collected by trypsinization and washed twice with ice-cold PBS. Cell pellet was resuspended in five volumes of cytoplasmic extraction buffer (CEB) [10 mM HEPES pH 7.9, 10 mM KCl, 0.1 mM EDTA, 0.3% NP-40 and 1× protease inhibitor cocktail] to the size of cell pellet for 5 min. Protein solution was centrifuged at 3000 rpm for 5 min at 4° C. and supernatant was harvested as cytoplasmic extract.
The cell pellet obtained after extraction of cytoplasmic proteins was resuspended again in CEB without NP-40. It was centrifuged at 3000 rpm for 5 min at 4° C. and supernatant was discarded. Equal volume of nuclear extraction buffer (NEB) [20 mM HEPES pH7.9, 0.4M NaCl, 1 mM EDTA, 25% Glycerol, and 1× protease inhibitor cocktail] was added to nuclear pellet and incubated on ice for 10 min. Supernatant was harvested as nuclear protein extract.

[5] = tested on: Akt/NFκB pathway in Balb/c mice intestine tissue; test: Immunoblot analysis and Akt kinase assay in intestine tissue; type: in vivo, mouse
Protocol: as §1
Akt kinase activity was determined using Akt Kinase Assay Kit (Nonradioactive) (Cell Signaling Technology, Cat. #9840) following the manufacturer's instructions.

HEK293 cells [6] = test: Annexin-V staining, control siRNA and Akt siRNA transfected cells; type: cell-based, human; conditions: for Apoptotic events: Akt knocked down HEK293, DMA+Radiation; for Total early and late apoptotic cells: control siRNA HEK293, DMA+Radiation
Protocol: (§2) HEK 293 cells were transfected with Akt siRNA and control-siRNA (Santa Cruz Biotechnology Inc.) according to the manufacturer's instructions. Semi-quantitative RT-PCR was performed with primers specific for Akt and ACTB in control siRNA and Akt siRNA treated HEK cells for analysing knockdown of Akt […] gene expression.
HEK293 cells (2×10^5 cells/plate) were transfected with control siRNA and siRNA-Akt, and DMA, Radiation and DMA+Radiation treatments were given as described earlier and samples were collected at 3, 6, 12, 18 and 24 h (data not shown for 12 and 18 h). Samples were prepared according to the manufacturer's instructions (BD Pharmingen™ Annexin V: FITC Apoptosis Detection Kit I, Catalog Number 556547, USA) and the samples were subjected to flow cytometry analysis (Becton Dickinson).

HEK293 cells [7] = test: Clonogenicity assay with Akt depleted cells; type: cell-based, human; conditions: 5Gy
Protocol: as §2
Exponentially growing HEK cells post siRNA (siRNA-Akt and control siRNA transfections) were treated with 50 μM DMA for 1 h and irradiated with 0, 1, 2, 5 and 8 Gy of radiation dose at RT. Cells were seeded into 60 mm dishes in triplicate, at various densities and cells were stained with crystal violet to count colonies. Same experiment was done with control siRNA-transfected HEK cells. Percentage radioprotection was calculated by following formula % of Protection in radiation treated cells=(Survival fraction in siRNA+DMA treated cells/Survival fraction in only siRNA treated cells/)×100.

[8] = 50 mg/kg i.v. before 8Gy TBI, 3 days postirradiation
[9] = melanoma TBM, 50 mg/kg i.v., 8Gy TBI
[10] = DMA+Radiation vs irradiated mice
[11] = DMA+Radiation, all three cell lines

For `COc1ccc(-c2nc3cc(-c4nc5cc(N6CCN(C)CC6)ccc5[nH]4)ccc3[nH]2)cc1OC` [DMA, 5-(4-methylpiperazin-1-yl)-2-[2′-(3,4-dimethoxyphenyl)-5′-benzimidazolyl]benzimidazole], the Intestine histology [1, 8] was “restored the crypts and villi architecture”, the Liver histology [1, 8] was “reduction in the number of pyknotic and inflammatory kupffer cells” and the Spleen histology [1, 8] was “restored the white pulp”. For the same compound, the “Intestine histology, tumor bearing mice” value [1, 9] was “intact better heighted villi and crypts”, the “Lung alveolar structure, tumor bearing mice” value [1, 9] was “less destructured” and the “Spleen histology, tumor bearing mice” value [1, 9] was “structural retention through white and red pulp protection”. The “IL6 level in small intestine (IHC)” value ([2]; DMA only treated mice) was “almost equal to control mice”, the “BrdU-positive cells (IHC)” value [2, 10] was “more BrdU-positive cells” and the “IL6 level in small intestine (IHC)” value [2, 10] was “higher level of IL6”. The “Cells at active S phase” value (HEK293 cells [3]; HEK293, DMA treated) was 30%, the S phase cells (HEK293 cells [3]; HEK293, DMA+Radiation (5Gy)) was “came back to normal” and the “NFκB p65 level” value ([4]; DMA+Radiation vs control and irradiated) was “increased level”. The “Level of phosphorylated Akt (Ser-473)” value ([4]; DMA+Radiation, HEK293, MRC5 and A549) was “increased”, the IκBα protein level [4, 11] was “decrease” and the “Phosphorylation of IKKα and IKKβ” value [4, 11] was “higher”. For the same compound, the “NFκB p65 in cytoplasm and nucleus” value ([4]; HEK293 cytoplasmic and nuclear extract, DMA prior to radiation) was “higher expression”, the “PTEN, mTOR and p70 levels” value ([4]; all three cell lines) was “could not address any significant changes” and the “Phosphorylated GSK3β” value ([4]; prior DMA treatment to radiation, all three cell lines) was “increase”. For the same compound, the “Phosphorylated Akt, GSK3β and IKKα/β” value ([5]; DMA treated intestine tissue prior to irradiation) was “higher level”, the “Kinase activity of Akt” value ([5]; DMA+Radiation vs control and radiation, intestine) was “higher kinase activity” and the “NFκB p65 expression” value ([5]; DMA+Radiation, intestine) was “higher expression”. For the same compound, the Apoptotic events (HEK293 cells [6]; 3 h) was 23%, the Apoptotic events (HEK293 cells [6]; 6 h) was 21% and the Apoptotic events (HEK293 cells [6]; 24 h) was 22%. The “Total early and late apoptotic cells” value (HEK293 cells [6]; 3 h) was 12%, the “Total early and late apoptotic cells” value (HEK293 cells [6]; 6 h) was 9% and the “Total early and late apoptotic cells” value (HEK293 cells [6]; 24 h) was 7%. The “% radioprotection (clonogenicity)” value (HEK293 cells [7]; Akt siRNA treated cells) was 7.5% and the “% radioprotection (clonogenicity)” value (HEK293 cells [7]; control siRNA treated cells) was 40.6%.

— US10016515B2, “DMA, a bis-benzimidazole, confers radioprotection to the intestine via Akt/NFκB dual pathway activation” (Jawaharlal Nehru University, priority 2016, dated 2018)
